Data from patent US6211242A, “Benzamide derivatives as vasopressin antagonists” (Fujisawa Pharmaceutical Co., Ltd., priority 1994, dated 2001).

Assays:
human V2 receptor = target: T1, human V2 receptor (Homo sapiens, UniProt P30518); assay: Vasopressin 2 (V2) receptor binding (competition with 3H-vasopressin, CHO cells expressing human V2 receptor); conditions: 0.5 nM 3H-vasopressin, CHO cell membranes, 2 hours at 22° C., pH 7.4
T1 construct: expressed in transfected cells
Protocol: Vasopressin 2 (V2) receptor binding
For binding assays, the receptor cDNA was permanently expressed in Chinese hamster ovary (CHO) cells. CHO cells were transfected with a vector directing expression of the cDNA for the human V2 receptor and the clonal cell lines expressing human V2 receptor was established essentially as described previously (Nakajima, Y., et. al. J. Biol. Chem., 1992, 267, 2437).
DNA-transfected cells were harvested and homogenized in ice cold 250 mM sucrose buffer containing 25 mM Tris-HCl (pH 7.4), 10 mM MgCl2, 1 mM EDTA and 5 μg/ml p-amidinophenylmethylsulfonyl fluoride (A-PMSF). The homogenate was centrifuged at 500×g for 10 minutes. The supernatant was centrifuged at 100,000×g for 1 hour. The final pellet was suspended in 25 mM Tris-HCl (pH 7.4) buffer (containing 10 mM […], 1 mM EDTA and 5 μg/ml A-PMSF), and stored in small aliquots at -80° C.
Competition assays were conducted at equilibrium (2 hours at 22° C.) by using 0.5 nM ^3 H-vasopressin (40-87 Ci/mmol, New England Nuclear) in 100 mM Tris-HCl (pH 7.4) buffer (containing 5 mM MgCl2, 5 μg/ml A-PMSF, 4 μg/ml leupeptin, 40 μg/ml bacitracin, 20 μg/ml chymostatin and 0.1% bovine serum albumin). Nonspecific binding was determined by using 1 μM vasopressin. After incubation, reaction mixture was rapidly filtered through Whatman glass filter (GF/C). […] The radioactivity was counted in a liquid scintilation counter. […]

[1] = target: T2, Vasopressin 1 (V1) receptor (Homo sapiens, UniProt P37288); assay: Vasopressin 1 (V1) receptor binding (competition with 3H-vasopressin, platelet membrane preparation); conditions: 1.5 nM 3H-vasopressin, platelet membranes, 15 minutes at 30° C., pH 7.4
T2 construct: Platelet-rich plasma (PRP) was prepared by centrifugation of whole blood; from tissue; host or cells: platelet membranes from blood of normal subjects
Protocol: Vasopressin 1 (V1) receptor binding
Blood was obtained by venipuncture from normal subjects. Platelet-rich plasma (PRP) was prepared by centrifugation of whole blood at 200×g for 10 minutes. PRP was centrifuged at 45,000×g for 30 minutes. The remaining pellet was resuspended in 10 volume of ice cold 100 mM Tris-HCl (pH 7.4) buffer (containing 5 mM MgCl2, 0.1% bovine serum albumin and 1 mM EGTA), and centrifuged at 45,000×g for 30 minutes again. The final pellet was resuspended in 100 mM Tris-HCl buffer. The resulting membrane preparation was used immediately for the binding assay.
Competition assays were conducted at equilibrium (15 minutes at 30° C.) by using 1.5 nM ^3 H-vasopressin (40-87 Ci/mmol; New England Nuclear) in 100 mM Tris-HCl (pH 7.4) buffer. Nonspecific binding was determined by using 1 μM vasopressin. After incubation, reaction was terminated by adding 5 ml of ice-cold 100 mM Tris-HCl (pH 7.4) buffer, and then filtered rapidly through Whatman glass filter (GF/C). The filter was washed twice with the same buffer. The glass filter was mixed with liquid scintilation cocktail, and radioactivity was counted in a liquid scintilation counter. Competition activity of the test compound was represented by IC50 values.

T1 sequence (P30518 whole entry): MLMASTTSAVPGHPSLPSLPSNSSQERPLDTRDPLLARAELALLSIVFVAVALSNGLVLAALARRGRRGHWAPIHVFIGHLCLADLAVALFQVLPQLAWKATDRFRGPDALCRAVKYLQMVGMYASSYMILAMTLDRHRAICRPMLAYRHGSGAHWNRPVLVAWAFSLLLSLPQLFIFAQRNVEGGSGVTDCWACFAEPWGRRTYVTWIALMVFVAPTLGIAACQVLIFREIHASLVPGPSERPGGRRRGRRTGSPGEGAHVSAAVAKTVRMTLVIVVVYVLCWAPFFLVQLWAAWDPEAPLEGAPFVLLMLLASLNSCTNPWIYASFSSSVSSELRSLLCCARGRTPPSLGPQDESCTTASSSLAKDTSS
T2 sequence (P37288 whole entry): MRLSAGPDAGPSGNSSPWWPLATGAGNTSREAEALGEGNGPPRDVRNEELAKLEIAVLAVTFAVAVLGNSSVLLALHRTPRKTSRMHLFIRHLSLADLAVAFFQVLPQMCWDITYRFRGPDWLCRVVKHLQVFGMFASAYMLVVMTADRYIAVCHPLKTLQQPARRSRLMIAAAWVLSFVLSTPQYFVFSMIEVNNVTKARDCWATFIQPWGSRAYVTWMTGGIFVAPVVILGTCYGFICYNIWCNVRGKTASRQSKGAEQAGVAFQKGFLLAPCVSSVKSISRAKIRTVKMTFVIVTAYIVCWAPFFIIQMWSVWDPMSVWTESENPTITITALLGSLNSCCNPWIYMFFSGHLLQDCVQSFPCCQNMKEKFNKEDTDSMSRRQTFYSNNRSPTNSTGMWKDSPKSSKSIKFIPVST

SMILES	IC50 (human V2 receptor)	IC50 [1]
Cc1ccc(-c2ccccc2C(=O)Nc2ccc(C(=O)N(C)c3ccccc3OCc3ccc(C(=O)N4CCN(C)CC4)cc3)cc2)cc1 [27-36)]	3 nM	
Cc1ccc(N(C)C(=O)c2ccc(NC(=O)c3ccccc3C)cc2)c(OCCCCCC(=O)N2CCN(C)CC2)c1 [27-58), 4-(Methylphenyl-2-carboxamido)-N-methyl-N-[4-methyl-2-[5-(4-methylpiperazin-1-yl)carbonylpent-1-yloxy]phenyl]benzamide]		4.4 nM
Cc1ccc(-c2ccccc2C(=O)Nc2ccc(C(=O)N(C)c3ccccc3OCCN(C)CCC(=O)N3CCN(C)CC3)cc2)cc1 [71-1)]	4.4 nM	
